Assays:
Experiment in all cases: biochemical
Set-up in all cases: species or system HEK293/K-562/placenta mixed human extract; Kinobeads chemoproteomic competition binding, quantified by TMT LC-MS/MS, dose response up to 20 uM
[1] = biological target: MAP2K1 (Homo sapiens, UniProt Q02750)
[2] = biological target: IRAK4 (Homo sapiens, UniProt Q9NWZ3)
[3] = biological target: PHKG2 (Homo sapiens, UniProt P15735)
[4] = biological target: MAP4K4 (Homo sapiens, UniProt O95819)
[5] = biological target: PRKD3 (Homo sapiens, UniProt O94806)
[6] = biological target: MELK (Homo sapiens, UniProt Q14680)
Sequence of MELK (Q14680 whole entry): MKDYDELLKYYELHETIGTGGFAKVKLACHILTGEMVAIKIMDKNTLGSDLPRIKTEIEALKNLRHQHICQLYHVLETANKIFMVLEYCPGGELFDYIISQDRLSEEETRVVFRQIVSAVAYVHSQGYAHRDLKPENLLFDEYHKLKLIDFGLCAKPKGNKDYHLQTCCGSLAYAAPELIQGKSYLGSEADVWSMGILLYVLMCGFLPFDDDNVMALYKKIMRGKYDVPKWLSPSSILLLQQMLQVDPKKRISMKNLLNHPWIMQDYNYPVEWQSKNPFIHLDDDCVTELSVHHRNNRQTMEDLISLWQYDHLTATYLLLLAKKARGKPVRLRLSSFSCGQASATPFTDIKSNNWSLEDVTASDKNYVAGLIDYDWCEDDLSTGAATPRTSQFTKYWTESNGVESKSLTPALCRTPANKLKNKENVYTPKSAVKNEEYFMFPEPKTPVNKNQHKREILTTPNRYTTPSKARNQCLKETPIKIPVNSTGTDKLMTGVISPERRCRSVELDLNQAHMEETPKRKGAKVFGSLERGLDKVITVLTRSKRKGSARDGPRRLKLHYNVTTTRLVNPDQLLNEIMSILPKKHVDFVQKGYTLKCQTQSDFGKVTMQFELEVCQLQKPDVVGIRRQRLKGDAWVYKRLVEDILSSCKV

[7] = biological target: STK17B (Homo sapiens, UniProt O94768)
Sequence of STK17B (O94768 whole entry): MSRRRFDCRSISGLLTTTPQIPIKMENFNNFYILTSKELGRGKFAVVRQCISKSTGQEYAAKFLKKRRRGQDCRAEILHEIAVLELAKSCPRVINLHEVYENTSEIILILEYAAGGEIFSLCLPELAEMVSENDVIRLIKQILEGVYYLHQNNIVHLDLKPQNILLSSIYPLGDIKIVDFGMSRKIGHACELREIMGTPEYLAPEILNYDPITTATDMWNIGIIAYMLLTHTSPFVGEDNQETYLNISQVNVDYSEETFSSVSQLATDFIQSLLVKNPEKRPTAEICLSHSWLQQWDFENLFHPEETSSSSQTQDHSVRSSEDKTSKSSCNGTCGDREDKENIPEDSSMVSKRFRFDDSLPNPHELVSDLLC

[8] = biological target: MAPK1 (Homo sapiens, UniProt P28482)
Sequence of MAPK1 (P28482 whole entry): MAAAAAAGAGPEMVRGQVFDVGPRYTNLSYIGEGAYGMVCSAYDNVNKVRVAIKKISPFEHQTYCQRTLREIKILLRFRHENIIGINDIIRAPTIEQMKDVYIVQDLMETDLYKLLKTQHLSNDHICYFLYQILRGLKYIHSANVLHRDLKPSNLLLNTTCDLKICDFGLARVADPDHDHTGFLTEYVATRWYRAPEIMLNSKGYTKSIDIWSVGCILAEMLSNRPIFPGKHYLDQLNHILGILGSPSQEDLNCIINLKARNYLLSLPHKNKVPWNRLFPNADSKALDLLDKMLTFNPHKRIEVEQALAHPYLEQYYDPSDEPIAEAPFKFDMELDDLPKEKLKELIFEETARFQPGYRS

[9] = biological target: RPS6KA2 (Homo sapiens, UniProt Q15349)
Sequence of RPS6KA2 (Q15349 whole entry): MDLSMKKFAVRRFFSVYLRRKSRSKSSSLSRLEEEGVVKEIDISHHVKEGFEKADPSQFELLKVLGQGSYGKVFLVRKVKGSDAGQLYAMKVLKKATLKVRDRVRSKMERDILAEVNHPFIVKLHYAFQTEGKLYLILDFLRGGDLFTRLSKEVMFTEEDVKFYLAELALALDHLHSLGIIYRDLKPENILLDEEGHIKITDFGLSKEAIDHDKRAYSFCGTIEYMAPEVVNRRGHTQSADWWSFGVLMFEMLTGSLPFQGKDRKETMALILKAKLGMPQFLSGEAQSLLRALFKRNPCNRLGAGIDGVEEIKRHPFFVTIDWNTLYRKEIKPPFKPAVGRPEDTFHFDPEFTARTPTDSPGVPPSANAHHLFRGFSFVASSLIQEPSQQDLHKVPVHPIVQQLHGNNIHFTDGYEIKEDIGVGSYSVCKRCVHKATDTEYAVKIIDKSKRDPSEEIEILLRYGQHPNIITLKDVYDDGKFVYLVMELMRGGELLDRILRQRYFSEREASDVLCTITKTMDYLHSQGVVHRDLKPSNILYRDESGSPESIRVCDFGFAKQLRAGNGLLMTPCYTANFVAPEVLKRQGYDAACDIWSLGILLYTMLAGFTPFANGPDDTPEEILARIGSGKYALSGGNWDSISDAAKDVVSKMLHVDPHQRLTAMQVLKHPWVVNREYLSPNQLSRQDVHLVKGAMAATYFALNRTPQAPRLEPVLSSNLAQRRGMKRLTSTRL

[10] = biological target: STRADA (Homo sapiens, UniProt Q7RTN6)
Sequence of STRADA (Q7RTN6 whole entry): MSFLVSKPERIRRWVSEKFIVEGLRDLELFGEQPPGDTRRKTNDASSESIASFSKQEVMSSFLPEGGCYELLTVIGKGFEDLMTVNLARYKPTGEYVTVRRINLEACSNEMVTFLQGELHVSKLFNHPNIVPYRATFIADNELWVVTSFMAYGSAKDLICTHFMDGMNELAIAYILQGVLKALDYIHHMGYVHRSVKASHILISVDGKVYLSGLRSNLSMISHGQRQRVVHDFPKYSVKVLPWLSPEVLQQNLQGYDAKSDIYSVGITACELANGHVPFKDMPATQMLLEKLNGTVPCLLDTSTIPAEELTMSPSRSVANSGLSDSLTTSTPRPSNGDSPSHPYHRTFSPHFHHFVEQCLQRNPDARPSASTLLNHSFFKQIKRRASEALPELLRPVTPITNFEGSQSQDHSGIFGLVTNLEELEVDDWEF

[11] = biological target: TAOK2 (Homo sapiens, UniProt Q9UL54)
Sequence of TAOK2 (Q9UL54 whole entry): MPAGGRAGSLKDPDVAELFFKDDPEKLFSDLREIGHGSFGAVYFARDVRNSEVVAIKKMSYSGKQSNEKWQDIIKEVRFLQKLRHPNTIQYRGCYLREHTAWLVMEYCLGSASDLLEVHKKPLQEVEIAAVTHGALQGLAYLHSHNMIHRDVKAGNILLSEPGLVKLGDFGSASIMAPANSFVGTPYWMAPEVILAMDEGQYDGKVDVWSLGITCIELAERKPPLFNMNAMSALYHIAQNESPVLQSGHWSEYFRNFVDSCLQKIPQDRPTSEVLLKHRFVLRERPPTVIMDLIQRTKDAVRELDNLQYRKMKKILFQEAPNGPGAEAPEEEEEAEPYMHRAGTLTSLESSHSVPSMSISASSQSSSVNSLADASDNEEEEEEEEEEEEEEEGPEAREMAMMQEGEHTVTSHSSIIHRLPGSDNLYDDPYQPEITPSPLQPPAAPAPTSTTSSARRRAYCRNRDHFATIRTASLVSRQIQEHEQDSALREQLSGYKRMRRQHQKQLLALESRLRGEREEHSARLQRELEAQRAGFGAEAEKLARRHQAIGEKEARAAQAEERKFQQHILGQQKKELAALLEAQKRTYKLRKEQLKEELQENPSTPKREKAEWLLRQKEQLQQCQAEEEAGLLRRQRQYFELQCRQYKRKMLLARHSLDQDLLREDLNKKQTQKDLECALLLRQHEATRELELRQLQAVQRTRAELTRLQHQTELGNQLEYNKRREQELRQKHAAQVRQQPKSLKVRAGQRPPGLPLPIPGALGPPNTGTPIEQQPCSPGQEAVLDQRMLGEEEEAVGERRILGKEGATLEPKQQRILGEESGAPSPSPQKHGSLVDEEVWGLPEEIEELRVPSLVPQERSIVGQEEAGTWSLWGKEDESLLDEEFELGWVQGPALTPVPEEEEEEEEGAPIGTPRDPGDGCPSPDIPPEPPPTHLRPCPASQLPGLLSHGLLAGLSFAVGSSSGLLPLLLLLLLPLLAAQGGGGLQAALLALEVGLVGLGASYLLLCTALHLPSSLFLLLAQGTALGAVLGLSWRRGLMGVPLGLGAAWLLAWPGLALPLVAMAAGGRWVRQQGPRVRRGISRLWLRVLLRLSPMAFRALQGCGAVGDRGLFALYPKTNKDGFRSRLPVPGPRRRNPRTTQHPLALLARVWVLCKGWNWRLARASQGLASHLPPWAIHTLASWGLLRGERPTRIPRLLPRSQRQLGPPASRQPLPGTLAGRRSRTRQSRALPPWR

[12] = biological target: AURKC (Homo sapiens, UniProt Q9UQB9)
[13] = biological target: MAP4K1 (Homo sapiens, UniProt Q92918)
[14] = biological target: MAP3K1 (Homo sapiens, UniProt Q13233)
[15] = biological target: EIF2AK1 (Homo sapiens, UniProt Q9BQI3)
[16] = biological target: GSK3B (Homo sapiens, UniProt P49841)
Sequence of GSK3B (P49841 whole entry): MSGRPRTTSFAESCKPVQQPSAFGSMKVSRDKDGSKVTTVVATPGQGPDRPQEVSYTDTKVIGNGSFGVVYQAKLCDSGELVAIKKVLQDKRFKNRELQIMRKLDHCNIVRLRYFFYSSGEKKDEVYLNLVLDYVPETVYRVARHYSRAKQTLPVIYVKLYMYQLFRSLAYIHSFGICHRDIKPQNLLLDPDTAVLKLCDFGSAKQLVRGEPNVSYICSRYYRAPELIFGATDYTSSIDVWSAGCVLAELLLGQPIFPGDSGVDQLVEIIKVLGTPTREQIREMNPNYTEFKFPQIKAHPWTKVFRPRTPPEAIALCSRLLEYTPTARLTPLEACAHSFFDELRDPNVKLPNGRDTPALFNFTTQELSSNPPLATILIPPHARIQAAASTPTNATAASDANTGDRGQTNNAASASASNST

[17] = biological target: AKT2 (Homo sapiens, UniProt P31751)
[18] = biological target: MAP3K6 (Homo sapiens, UniProt O95382)
[19] = biological target: PRKD2 (Homo sapiens, UniProt Q9BZL6)
[20] = biological target: PRKAA1 (Homo sapiens, UniProt Q13131)

Sequence of PHKG2 (P15735 whole entry): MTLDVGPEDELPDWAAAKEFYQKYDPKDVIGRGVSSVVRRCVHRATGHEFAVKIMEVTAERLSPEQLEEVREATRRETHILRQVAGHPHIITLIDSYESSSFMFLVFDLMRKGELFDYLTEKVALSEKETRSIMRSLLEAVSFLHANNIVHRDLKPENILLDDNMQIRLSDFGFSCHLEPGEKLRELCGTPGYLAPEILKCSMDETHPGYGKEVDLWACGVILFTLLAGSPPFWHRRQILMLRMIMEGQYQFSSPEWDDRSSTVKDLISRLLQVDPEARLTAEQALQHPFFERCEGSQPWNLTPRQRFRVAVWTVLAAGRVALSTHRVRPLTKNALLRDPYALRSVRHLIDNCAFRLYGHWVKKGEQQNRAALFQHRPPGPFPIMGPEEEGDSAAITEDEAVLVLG
Sequence of MAP2K1 (Q02750 whole entry): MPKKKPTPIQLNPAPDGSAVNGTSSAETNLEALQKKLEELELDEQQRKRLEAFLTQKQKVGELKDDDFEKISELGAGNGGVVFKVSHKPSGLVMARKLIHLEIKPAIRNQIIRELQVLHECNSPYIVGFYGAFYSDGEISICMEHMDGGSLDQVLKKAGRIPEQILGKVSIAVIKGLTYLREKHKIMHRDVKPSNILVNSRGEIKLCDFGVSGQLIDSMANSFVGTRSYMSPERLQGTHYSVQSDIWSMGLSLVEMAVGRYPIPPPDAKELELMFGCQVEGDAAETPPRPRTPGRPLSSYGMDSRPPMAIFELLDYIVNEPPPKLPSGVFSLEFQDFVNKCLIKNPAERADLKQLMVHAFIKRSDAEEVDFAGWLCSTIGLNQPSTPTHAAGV

COc1ccccc1-c1n[nH]c2nc(N[C@H]3CC[C@H](NS(=O)(=O)CCC(F)(F)F)CC3)nc(OC)c12 [compound 31, 3,3,3-Trifluoro-N-(trans-4-((4-methoxy-3-(2-methoxyphenyl)-1H-pyrazolo[3,4-d]pyrimidin-6-yl)amino)cyclohexyl)propane-1-sulfonamide]
IC50 [1]: ≥ 20 µM | IC50 [2]: ≥ 20 µM | IC50 [3]: ≥ 20 µM | IC50 [4]: ≥ 20 µM | IC50 [5]: ≥ 20 µM | IC50 [6]: ≥ 20 µM | IC50 [7]: ≥ 20 µM | IC50 [8]: ≥ 20 µM | IC50 [9]: ≥ 20 µM | IC50 [10]: ≥ 20 µM | IC50 [11]: 5.2 µM | IC50 [12]: ≥ 20 µM | IC50 [13]: ≥ 20 µM | IC50 [14]: ≥ 20 µM | IC50 [15]: ≥ 20 µM | IC50 [16]: ≥ 20 µM | IC50 [17]: ≥ 20 µM | IC50 [18]: ≥ 20 µM | IC50 [19]: ≥ 20 µM | IC50 [20]: ≥ 20 µM

— PMC6407917, “Identification of GSK3186899/DDD853651 as a Preclinical Development Candidate for the Treatment of Visceral Leishmaniasis” (Journal of Medicinal Chemistry, 2018)
